Experimental findings from publication PMC4527243, “Role of electrostatic interactions for ligand recognition and specificity of peptide transporters” (BMC Biology, 2015) are described below.

Data set [1] deals with T1, YePEPT (Yersinia enterocolitica, UniProt A0A2R9TD79).
T1 construct: gene YEP4_02370; full-length gene in pZUDF21-rbs-3C-10His, C-terminal HRV3C site and deca-His tag, expressed in E. coli BL21(DE3) pLysS; uptake in whole cells
T1 sequence (A0A2R9TD79 1-511): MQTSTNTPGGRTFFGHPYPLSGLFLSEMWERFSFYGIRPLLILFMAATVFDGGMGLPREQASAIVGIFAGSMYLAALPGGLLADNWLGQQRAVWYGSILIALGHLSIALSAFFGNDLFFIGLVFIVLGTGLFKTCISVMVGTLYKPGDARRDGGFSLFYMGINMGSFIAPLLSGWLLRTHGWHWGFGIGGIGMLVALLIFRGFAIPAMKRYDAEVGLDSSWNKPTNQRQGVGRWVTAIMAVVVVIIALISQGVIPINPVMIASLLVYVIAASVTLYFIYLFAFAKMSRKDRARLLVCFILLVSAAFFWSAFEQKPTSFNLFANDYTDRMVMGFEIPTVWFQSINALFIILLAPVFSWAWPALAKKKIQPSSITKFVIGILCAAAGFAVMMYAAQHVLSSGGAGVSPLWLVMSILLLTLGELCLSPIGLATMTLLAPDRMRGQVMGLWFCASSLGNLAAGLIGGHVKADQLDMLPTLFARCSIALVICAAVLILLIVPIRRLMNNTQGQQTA
As to the kind of experiment: competition of [3H]Ala-Ala uptake in E. coli cells. The format is cell-based, Escherichia coli.

The target in data set [2] is T1, YePEPT. As to the kind of experiment: competition of [3H]Ala-Ala uptake in E. coli cells. In kind it is cell-based. Conditions: 50 μM [3H]Ala-Ala, 2.5 mM competitor, pH 7.5, room temperature.
Substrate in data set [3]: C[C@H](N)C(=O)N[C@@H](C)C(=O)O
As to the kind of experiment: [3H]Ala-Ala uptake saturation in E. coli cells. The format is cell-based, Yersinia enterocolitica. Conditions: labelled compound, pH 7.5, 150 mM NaCl, room temperature, 100 s.

Where a SMILES comes first, the peptide text is derived from it.

The term Ki denotes the equilibrium dissociation constant of an inhibitor or competing ligand from its target. Lower therefore signals higher affinity. Usually Km stands for the substrate concentration at which the rate is half of its maximum.

In turn, `C[C@H](NC(=O)[C@@H](N)CC(=O)O)C(=O)O` [Asp-Ala] (H-Asp-Ala-OH) had a Ki at YePEPT [1] of around 80 µM.
Same read-out and setting: the same measure for `C[C@H](NC(=O)[C@@H](N)CCC(=O)O)C(=O)O` [Glu-Ala] (H-Glu-Ala-OH): around 50 µM.
`C[C@H](NC(=O)[C@@H](N)Cc1ccc(O)cc1)C(=O)O` [Tyr-Ala]: the “competition of [3H]Ala-Ala uptake in E. coli cells” value at YePEPT [2] is “YePEPT also displayed specificity for Ala-Tyr and Tyr-Ala at comparable levels”.

B1: YePEPT (Yersinia enterocolitica subsp. palearctica YE-P4) (protein)
chain: MQTSTNTPGGRTFFGHPYPLSGLFLSEMWERFSFYGIRPLLILFMAATVFDGGMGLPREQASAIVGIFAGSMYLAALPGGLLADNWLGQQRAVWYGSILIALGHLSIALSAFFGNDLFFIGLVFIVLGTGLFKTCISVMVGTLYKPGDARRDGGFSLFYMGINMGSFIAPLLSGWLLRTHGWHWGFGIGGIGMLVALLIFRGFAIPAMKRYDAEVGLDSSWNKPTNQRQGVGRWVTAIMAVVVVIIALISQGVIPINPVMIASLLVYVIAASVTLYFIYLFAFAKMSRKDRARLLVCFILLVSAAFFWSAFEQKPTSFNLFANDYTDRMVMGFEIPTVWFQSINALFIILLAPVFSWAWPALAKKKIQPSSITKFVIGILCAAAGFAVMMYAAQHVLSSGGAGVSPLWLVMSILLLTLGELCLSPIGLATMTLLAPDRMRGQVMGLWFCASSLGNLAAGLIGGHVKADQLDMLPTLFARCSIALVICAAVLILLIVPIRRLMNNTQGQQTA
notes: full-length gene in pZUDF21-rbs-3C-10His, C-terminal HRV3C site and deca-His tag, expressed in E. coli BL21(DE3) pLysS; uptake in whole cells
For B1, the Michaelis-Menten constant (Km) in data set [3] worked out at 200 µM.
